Measured values from patent publication US20170184604A1, “DD1ALPHA RECEPTOR AND USES THEREOF IN IMMUNE DISORDERS” (THE GENERAL HOSPITAL CORPORATION, priority 2014, published 2017).

Assays:
PD-L1 = assay: Ig fusion protein staining of 293T transfectants (flow cytometry); format: binding, human; settings: cell surface staining
naïve CD4+CD62L+ T cells = assay: iTreg cell development assay; format: cell-based, mouse; settings: for frequency of Foxp3+CD4+ T cells (iTreg): anti-CD3 and anti-CD28
Experimental: (§1) Enriched human CD4+ T cells and CD8+ T cells were stained with CFSE (1 μM) and stimulated with plate-bound anti-CD3 antibody (3 μg/ml) together with 2, 5, or 10 μg/ml of DD1α-Ig proteins or control Ig proteins. The proliferations of CD4+ T or CD8+ T cells were determined by the percentages of CFSE-labeled CD4+ T or CD8+ T cells at the 72-hour culture. The levels of cytokines IFN-γ and TNF-α in culture supernatant were analyzed by ELISA at the 48-hour culture. […] The proliferation and cytokine production of CD4+ T cells were determined as FIG. 5A. […] The proliferations of CD4+ T cells were determined by percentage of CFSE-diluted CD4+ cells on day 3. The levels of cytokines IFN-γ and IL-2 in culture supernatant were analyzed by ELISA on day 2. […] Data are shown as mean±SD and representative of three experiments.
The cell culture plates were coated with anti-CD3 (145-2C11, eBioscience) together with mDD1α-Ig, mPD-L1-Ig or control Ig proteins. CD4+CD62L+naïve T cells were purified from splenocytes freshly isolated from Wt mice using CD4+CD62L+ T Cell Isolation Kit II (Miltenyi Biotec) and cultured in complete RPMI-1640 media added by anti-CD28 (37.51, eBioscience) and TGF-β (BioLegend) on the anti-CD3 & Ig proteins-coated plates. On day 3, cells were stained with anti-CD4-APC (RM4-5, eBioscience) and anti-mouse Foxp3-PE (FJK-16s, eBioscience) and analyzed for Foxp3 expression on CD4+ T cells by flow cytometry.

human CD4+ T cells = assay: Human T cell activation assay (CFSE proliferation, cytokine ELISA); format: cell-based
Experimental: as §1
The proliferations of CD4^+ T cells were determined by percentage of CFSE-diluted CD4^+ cells on day 3.
The cytokine production of CD4^+ T cells were then determined IFN-γ and TNF-alpha levels in culture supernatants on day 2 were analyzed by ELISA.
The amount of Ig protein was kept constant at 10 μg/ml by the addition of control Ig protein. Human CD4+ or CD8+ T cells were purified from freshly isolated PBMCs using CD4+ T Cell Isolation Kit II, human or CD8+ T Cell Isolation Kit, human (Miltenyi Biotec). Mouse CD4+ and CD8+ T cells were purified from splenocytes freshly isolated from mice using CD4+ T Cell Isolation Kit II, mouse or CD8a+ T Cell Isolation Kit II, mouse (Miltenyi Biotec). […] The T cells were labeled with 1 μM CFSE, quenched by cold FBS and incubated in the anti-CD3 & Ig proteins-coated plates. On day 2 after stimulation, supernatant was collected and cytokines were assayed by ELISA. On day 3, cells were stained with anti-CD4-APC (OKT4, eBioscience for human CD4+ T cells; RM4-5, eBioscience for mouse CD4+ T cells) or anti-CD8-APC (SK1, eBioscience for human CD8+ T cells; 53-6.7, eBioscience for mouse CD8+ T cells) and then analyzed for CFSE dilution by flow cytometry.

[1] = tested on: CD4+ or CD8+ T cells from wt- or DD1α−/− mice; assay: Mouse T cell activation assay (CFSE proliferation); format: cell-based
Experimental: Enriched CD4+ and CD8+ T cells from Wt and DD1α−/− mice were stimulated, with 2.5 μg/ml anti-CD3 alone or together with DD1α-Ig or control Ig. The proliferations of CD4+ T cells (top graphs) or CD8+ T cells (bottom graphs) were determined by the percentage of CFSE-diluted CD8+ cells on day 3. The levels of cytokines (IFN-γ and TNF-α) in culture supernatant on day 2 were analyzed by ELISA. The results represent mean±SD from three experiments.
The inventors have discovered that DD1αregulates T cell activation through DD1α on T cells. […] The proliferations of CD4+ T cells were determined by percentage of CFSE-diluted CD4+ cells on day 3 and IFN-γ and levels in culture supernatants on day 2 were analyzed by ELISA. […] The proliferations of CD8+ T cells were determined by percentage of CD8+ T cells containing diluted CFSE signal on day 3. The cytokine levels in culture supernatant were analyzed by ELISA on day 2.
The amount of Ig protein was kept constant at 10 μg/ml by the addition of control Ig protein. Human CD4+ or CD8+ T cells were purified from freshly isolated PBMCs using CD4+ T Cell Isolation Kit II, human or CD8+ T Cell Isolation Kit, human (Miltenyi Biotec). Mouse CD4+ and CD8+ T cells were purified from splenocytes freshly isolated from mice using CD4+ T Cell Isolation Kit II, mouse or CD8a+ T Cell Isolation Kit II, mouse (Miltenyi Biotec). Purity was confirmed to be over 90% by flow cytometry. The T cells were labeled with 1 μM CFSE, quenched by cold FBS and incubated in the anti-CD3 & Ig proteins-coated plates. On day 2 after stimulation, supernatant was collected and cytokines were assayed by ELISA. On day 3, cells were stained with anti-CD4-APC (OKT4, eBioscience for human CD4+ T cells; RM4-5, eBioscience for mouse CD4+ T cells) or anti-CD8-APC (SK1, eBioscience for human CD8+ T cells; 53-6.7, eBioscience for mouse CD8+ T cells) and then analyzed for CFSE dilution by flow cytometry.

binding to PD-L1 transfectants (PD-L1): not to PD-L1 or TIM-3 transfectants
Substance: DD1α-Ig: the extracellular region of DD1α fused with the immunoglobulin G Fc segment
iTreg cell generation (naïve CD4+CD62L+ T cells; alone without TGF-β): did not affect | frequency of Foxp3+CD4+ T cells (iTreg) (naïve CD4+CD62L+ T cells; 1 ng/ml TGF-β, control Ig 14.2%): 31.4% | frequency of Foxp3+CD4+ T cells (iTreg) (naïve CD4+CD62L+ T cells; 2 ng/ml TGF, control Ig 32.6%): 51.7% | iTreg cell development (naïve CD4+CD62L+ T cells; in the presence of TGF-β): significantly enhanced | T cell activation-induced production of IFN-γ and TNF-α (human CD4+ T cells; human CD4+ and CD8+ T cells, ELISA of culture supernatant): clearly blocked | proliferation of human CD4+ T cells (human CD4+ T cells; plate-bound anti-CD3 3 μg/ml, CFSE, Ig control 92.2%): 47.1% | inhibition of anti-CD3-stimulated human CD4+ T cell proliferation (human CD4+ T cells; plate-bound anti-CD3 3 μg/ml, CFSE, relative to Ig control (92.2% proliferation)): ~45% | CD4+ T cell proliferation stimulated by anti-CD3 (human CD4+ T cells; various concentrations with 3 μg/ml anti-CD3): strongly inhibited | inhibition of anti-CD3-induced CD4+ or CD8+ T cell proliferation ([1]; DD1α−/− CD4+ or CD8+ T cells): ~30% | inhibition of anti-CD3-induced CD4+ or CD8+ T cell proliferation ([1]; T cells from wt mice): ~50% | mouse CD4+ and CD8+ T cell activation ([1]; dose-dependent): inhibitory effect
